Laboratory results: article PMC8494430, “Development of a fluorogenic ADAMTS-7 substrate” (Journal of Enzyme Inhibition and Medicinal Chemistry, 2021)

How the values were obtained:
ADAMTS-7 [1] = molecular target: T1, ADAMTS-7 (Homo sapiens, UniProt Q9UKP4); test: Inhibition of ADAMTS-7 cleavage of FRET substrate ATS7FP7; assay type: biochemical
T1 construct: the recombinant construct ADAMTS7-T8, which lacks the C-terminal PLAC domain; made in house
T1 sequence (Q9UKP4 237-1631 limits assumed): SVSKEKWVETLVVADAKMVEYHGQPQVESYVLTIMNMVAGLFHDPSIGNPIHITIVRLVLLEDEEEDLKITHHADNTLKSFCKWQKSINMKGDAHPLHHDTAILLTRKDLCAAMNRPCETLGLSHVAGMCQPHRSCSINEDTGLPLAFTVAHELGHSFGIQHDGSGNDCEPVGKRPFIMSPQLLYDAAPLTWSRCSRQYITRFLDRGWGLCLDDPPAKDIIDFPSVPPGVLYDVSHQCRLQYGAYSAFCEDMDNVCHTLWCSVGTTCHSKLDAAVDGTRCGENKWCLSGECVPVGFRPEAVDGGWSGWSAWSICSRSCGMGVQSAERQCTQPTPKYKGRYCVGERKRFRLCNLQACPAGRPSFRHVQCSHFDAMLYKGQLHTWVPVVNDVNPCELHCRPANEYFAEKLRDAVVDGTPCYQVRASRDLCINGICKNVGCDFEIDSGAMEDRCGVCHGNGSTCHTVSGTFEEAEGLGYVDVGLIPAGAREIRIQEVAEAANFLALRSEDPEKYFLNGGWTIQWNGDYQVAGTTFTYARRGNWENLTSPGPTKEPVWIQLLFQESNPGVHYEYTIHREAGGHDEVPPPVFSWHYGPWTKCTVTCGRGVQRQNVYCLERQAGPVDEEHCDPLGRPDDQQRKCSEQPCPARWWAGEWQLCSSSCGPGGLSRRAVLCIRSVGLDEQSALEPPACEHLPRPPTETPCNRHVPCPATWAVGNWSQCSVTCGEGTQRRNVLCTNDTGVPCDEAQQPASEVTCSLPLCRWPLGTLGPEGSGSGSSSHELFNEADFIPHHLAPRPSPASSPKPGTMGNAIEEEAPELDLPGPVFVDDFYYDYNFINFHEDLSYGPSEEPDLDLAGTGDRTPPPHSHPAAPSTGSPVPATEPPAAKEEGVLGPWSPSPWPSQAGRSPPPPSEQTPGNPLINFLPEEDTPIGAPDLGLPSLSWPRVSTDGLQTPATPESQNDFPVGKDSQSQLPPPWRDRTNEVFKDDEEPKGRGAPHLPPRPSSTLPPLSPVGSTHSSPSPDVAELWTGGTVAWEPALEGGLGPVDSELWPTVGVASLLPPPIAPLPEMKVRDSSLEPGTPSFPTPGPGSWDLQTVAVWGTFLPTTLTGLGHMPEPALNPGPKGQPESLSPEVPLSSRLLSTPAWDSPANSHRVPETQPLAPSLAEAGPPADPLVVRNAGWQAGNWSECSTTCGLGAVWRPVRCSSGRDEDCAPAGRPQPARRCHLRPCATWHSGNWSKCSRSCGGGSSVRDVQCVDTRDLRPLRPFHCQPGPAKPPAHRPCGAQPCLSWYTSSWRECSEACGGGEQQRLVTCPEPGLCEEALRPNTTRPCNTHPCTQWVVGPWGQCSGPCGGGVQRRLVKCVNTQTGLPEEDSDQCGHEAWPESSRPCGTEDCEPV
Description: All enzyme assays were conducted in TNC-B buffer (50 mM Tris- HCl, pH 7.5, 150 mM NaCl, 10 mM CaCl2, and 0.02% NaN3) at 37 °C in 384 well plates (Cat. No: 784900, Greiner Bio-One, Austria). To avoid the formation of inhibitor or peptide aggregates, the detergent Brij-35 (0.05%) was added to TNC-B[13]. For inhibition studies, stock solutions of chemical compounds were prepared in dimethyl sulfoxide (DMSO) (10 mM). […] Blank samples were prepared using buffer only and the rate of cleavage for blank reactions was subtracted from the rates measured in the presence of enzyme. Upon addition of the indicated ADAMTS-7 FRET substrates (40 µM), the fluorescence was measured immediately using a FLUOstar Omega microplate reader (BMG Labtech, Germany) with an excitation filter wavelength of 485 nm and an emission filter wavelength of 520 nm.

ADAMTS-7 [2] = molecular target: T1, ADAMTS-7; test: LTBP4S-A cleavage assay (SDS-PAGE, densitometry); assay type: biochemical
Description: LTBP4S-A cleavage assays were performed as before[8] with small modifications. Here, ADAMTS-7 –T8 (19 nM) was pre-incubated either in the absence or presence of the indicated inhibitors for 2 h at 37 °C before addition of […] (5.6 µM). After 17 h, proteolysis was stopped by addition of Bolt^TM LDS Sample Buffer, 5% β-mercaptoethanol, and heating to 95 °C. Samples were frozen at […] before use. For SDS-PAGE analysis, 12% Bis-Tris Plus Gels (ThermoFisher) were used and stained for 6 h with Imperial protein stain (ThermoFisher). Gels were destained overnight in pure water at room temperature on an orbital shaker and scanned for analysis of LTBP4S-A cleavage bands. To accurately determine cleavage inhibition from each inhibitor, inhibition was quantified by densitometry of the bands corresponding to cleavage products using ImageJ software. The data were plotted using GraphPad Prism 7.0.

- IC50 (ADAMTS-7 [1]; ATS7FP7 40 μM, 1 h preincubation, 37 °C): 0.33 ± 0.07 µM
- increase of ADAMTS-7 inhibition relative to JG23 (ADAMTS-7 [1]; against ATS7FP7): approximately 2 fold
- Ki (ADAMTS-7 [1]; read-out: Ki app (ATS7FP7 substrate)): 0.068 ± 0.014 µM
- IC50 (ADAMTS-7 [2]; ADAMTS-7 19 nM, 2 h preincubation, LTBP4S-A 5.6 μM, 17 h, read-out: IC50 (LTBP4S-A substrate)): 0.112 ± 0.014 µM
- increase of ADAMTS-7 inhibition relative to JG23 (ADAMTS-7 [2]; against LTBP4S-A): 5.1 fold
Structure (SMILES): O=C(NCCC[C@@H](NS(=O)(=O)c1ccc(OCc2ccc(F)cc2Cl)cc1)C(=O)NO)c1ccccc1 [EDV33]
